According to patent US20250339426A1, “GCN2 MODULATOR FOR TREATING CANCER” (HIBERCELL, INC., priority 2022, published 2025):

Experiments:
[1] = tested on: GCN2 pathway (p-GCN2, ATF4) in HT1080 cells; assay: Western blot analysis of HT1080 cell lysates; assay type: cell-based, human; settings: FIG. 5
Description: The HT1080 cells were harvested and counted and diluted to the desired density. 2 mL of cell suspension was added into each well of 6-well cell culture plate. The plates were transferred into 37° C., 5% CO2 incubator overnight. The cells were treated as described above. The media was aspirated, and cells were washed with ice cold phosphate buffered saline (PBS). Ice cold 1× radioimmunoprecipitation assay (RIPA) lysis buffer supplemented with protease and phosphatase inhibitors was added to the cell pellets, on ice. After 30 min on ice the cell lysates were centrifuged at 4° C., 12,000 rpm for 15 minutes and the supernatant collected. Protein concentration was determined using BCA kit. The cell lysates were mixed with 5× sodium dodecyl sulfate (SDS) loading buffer and denatured at 95° C. for 5 minutes. […] After the electrophoresis was completed, the separated protein was transferred to a nitrocellulose membrane using transblot system for 90 min, 300 mA, then the membrane was blocked with (tris-buffered saline) TBS buffer (5% bovine serum albumin (BSA)) for 1 hr at room temperature. The membrane was exposed to the primary antibodies overnight in cold room in TBS buffer (1% BSA). The membrane was then washed with TBS-Tween for 3×10 min at R/T, incubated with secondary antibodies in TBS buffer (1% BSA) for 1 hr at RT. The membrane was washed with TBS-Tween for 3×10 min at R/T and the imaging was acquired with Li—COR imaging system.

[2] = tested on: Kasumi-1 (human AML cancer cells); assay: In vivo tumor growth inhibition, Kasumi-1 xenograft; set-up: species or system CB17 SCID mice
Description: Kasumi-1 (human AML cancer cells): Female 6-8 weeks old CB17 SCID mice were inoculated subcutaneously on the right flank with […] tumor cells (1×10^7) in RPMI 1640 without serum for tumor development. The treatments were started when the mean tumor size reached approximately 151 mm^3 at Day 29 after cell inoculation and continued until end of study by twice daily oral gavage dosing of HC-7366 at listed doses (vehicle, 3 mg/kg HC-7366, or 30 mg/kg HC-7366, FIG. 18).
(§1) [formula] • 2.2.2 Tumor Measurements: The measurement of tumor size was conducted three times weekly with a caliper and recorded. The tumor volume (mm^3) was estimated using the formula: TV=a×b^2/2, where “a” and “b” is long and short diameters of a tumor, respectively. Tumor volume was calculated using the formula [tumor volume (mm^3)=π/6×length×width^2).
(§2) Regression was calculated using the formula=100×ΔT/T initial, if ΔT<0. Animals with 0 mm^3 tumor volume (no measurable tumor) for three consecutive measurements were considered as complete responders and animals with 50% tumor regressions were partial responders.

[3] = tested on: NCI-H1975 (human non-small cell lung cancer cells); assay: In vivo tumor growth inhibition, NCI-H1975 xenograft; set-up: species or system Athymic Nude-Foxn1nu mice; settings: HC-7366 3 mg/kg twice daily oral
Description: NCI-H1975 (human non-small cell lung cancer cells): Female 7-8 weeks old Athymic Nude-Foxn1nu mice were inoculated subcutaneously on the right flank with NCI-H1975 tumor cells (2.5×10^6) in 0.1 ml of RPMI1640 medium without serum for tumor development. Single agent HC-7366 was dosed at 3 mg/kg, osimertinib at 2.5 mg/kg and dacomitinib at 15 mg/kg. HC-7366 was combined with either osimertinib or dacomitinib. The vehicle for the groups was 0.5% methyl cellulose. The treatments were started when the mean tumor size reached approximately 205 mm^3 at Day 22 post inoculation and continued until end of study. HC-7366 was given twice daily by oral gavage whereas osimertinib or dacomitinib were administered once a day by oral gavage (FIGS. 131 and 133).
as §1, §2

[4] = tested on: ASNS, PSAT1, PUMA, HIF1α, HIF2a in DLD-1 tumors; assay: Tumor IHC, DLD-1 tumors; assay type: in vivo, BALB/c nude mice
Description: Immunohistochemical analysis was carried out on tumors that were collected at the end of the study described in Example 6. Formalin-fixed paraffin-embedded samples were sectioned at 5 μm thickness and mounted on Superfrost Plus microscope slides (Fisher Scientific). All immunohistochemical (IHC) staining was performed on Bond Rx auto-stainer (Leica Biosystems) using the conventional TSA-amplified detection system. Primary antibodies used were as follows: a-ASNS (Cell Signaling Technology #92479), a-PUMA (Cell Signaling Technology #98672), a-PSAT1 (Proteintech #10501-1-AP), a-PHGDH (Proteintech #14719-1-AP), HIF-1a-Novus Biologicals NB 100-479, HIF-2a-Novus Biologicals NB100-122SS, and GLUT-1-EMB Biosciences 07-1401. TSA-conjugated Alexa488, Alexa 568 and Alexa647 fluorophores from Invitrogen (#B40953, #B40956, and #B40958) were used at 1:500 dilution. Slides were counterstained with DAPI and cover slipped using Mowiol anti-fade mounting media (Sigma #D2522).
(§3) Slides were imaged with Aperio Versa 200 (Leica Biosystems) whole-slide scanner using 10×/0.32NA objective, and the data were analyzed using custom-written macros in ImageJ/FIJI (NIH). Briefly, 150 μm of outer edges of the tumor sections and necrotic regions (determined by lack of 4′,6-diamidino-2-phenylindole (DAPI) signal or presence of condensed DNA) were eliminated from the analysis. Gaussian-blurred DAPI channel was used to measure the area of the tumor tissue. Scans of immune-staining were processed to remove background, then total intensity value above appropriate threshold levels was measured and normalized to tissue area. All graphing and statistics (one-way ANOVA and pair-wise comparisons) were performed using Prism GraphPad.

[5] = tested on: HIF2α and GLUT1 in 786-O tumors; assay: Tumor IHC, 786-O tumors (DC101 combination study); assay type: in vivo, BALB/c nude mice; settings: HC-7366 2 mg/kg twice daily, DC101 15 mg/kg twice a week
Description: 786-O (human renal cell carcinoma cancer cells): Female 6-8 weeks old BALB/c nude mice were inoculated subcutaneously on the right flank with 786-O tumor cells (5×10^6) in 0.1 ml of RPMI1640 medium without serum for tumor development. The treatments were started when the mean tumor size reached approximately 189 mm^3 after three weeks post inoculation and continued until end of study by twice daily oral gavage dosing of HC-7366 at listed doses (vehicle or 2 mg/kg HC-7366, FIGS. 52-54). For the DC101 combination study, DC101 (murine monoclonal anti-VEGFR2 antibody) was dosed at 15 mg/kg twice a week by intraperitoneal injection.
Immunohistochemical analysis was carried out on tumors that were collected at the end of the study described in Example 6. […]
as §3, with “Gaussian-blurred DAPI channel was used to measure the area of the tumor tissue.” left out, “All graphing and statistics (one-way ANOVA and pair-wise comparisons) were performed using Prism GraphPad.” left out

[6] = end of study (day 20), bell-shaped manner
[7] = printed 'in FaDu tumors', FIGS. 29-39

CNC(=O)c1ncn2cc(-c3c(F)ccc(NS(=O)(=O)c4cc(Cl)cnc4OC)c3F)ncc12 [HC-7366, 6-(3-((5-chloro-2-methoxypyridine)-3-sulfonamido)-2,6-difluorophenyl)-N-methylimidazo[1,5-a]pyrazine-1-carboxamide]
GCN2 pathway, HC-7366 by itself ([1]; 0 to 10 μM): activation of GCN2 pathway | halofuginone induced p-GCN2 and ATF4 ([1]; 100 nM Halofuginone): inhibited | TGI ([2]; 3 mg/kg twice daily oral): 73% | TGI ([2]; 30 mg/kg twice daily oral): 77% | TGI [3]: 59% | ASNS by IHC [4, 6]: potently induced | PSAT1 by IHC [4, 6]: potently induced | PUMA by IHC [4, 6]: potently induced | HIF1α protein levels [4, 7]: significantly reduced | HIF2α protein levels [4, 7]: significantly reduced | GLUT1 levels by IHC [5]: significantly reduced | HIF2α by IHC ([5]; single agents and combination): significantly decreased
